Assay results as given in patent publication US20120122908A1, “Novel C-4 Substituted Retinoids” (University of Maryland, priority 2000, published 2012).
Where two headings read alike, the source gives them in different places.

Tests used:
RARγ = biological target: T1, RARγ (Homo sapiens, UniProt P13631); test: Competitive [3H]ATRA binding to recombinant RARγ; conditions: for binding to RARγ: concentrations up to 500 nM
T1 construct: Recombinant full-length RAR proteins were expressed as S-Tag fusion proteins in BL21 E. coli cells; S-Tag; made in house; host or cells: E. coli BL21
T1 sequence (P13631 1-454): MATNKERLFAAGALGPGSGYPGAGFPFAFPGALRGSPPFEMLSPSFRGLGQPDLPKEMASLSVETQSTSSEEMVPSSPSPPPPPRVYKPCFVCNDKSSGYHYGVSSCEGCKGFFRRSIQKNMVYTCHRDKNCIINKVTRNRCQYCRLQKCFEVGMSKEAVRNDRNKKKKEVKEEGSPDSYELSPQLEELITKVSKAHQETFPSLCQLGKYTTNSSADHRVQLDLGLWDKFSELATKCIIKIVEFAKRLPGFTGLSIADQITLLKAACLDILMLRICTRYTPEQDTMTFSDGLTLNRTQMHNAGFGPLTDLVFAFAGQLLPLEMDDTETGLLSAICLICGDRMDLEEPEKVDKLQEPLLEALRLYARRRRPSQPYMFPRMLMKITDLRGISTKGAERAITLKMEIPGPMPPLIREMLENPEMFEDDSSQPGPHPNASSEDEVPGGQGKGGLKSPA
Excerpt: (§1) Because the novel compounds are retinoid-related analogs, they bind to the retinoid receptors in vivo and thus have increased therapeutic potentials. Similar to ATRA, these novel compounds act as a ligand for the retinoic acid receptors (RARs, α, β, and γ) but not the retinoid X receptors (RXRs, α, β, and γ). […] (Nervi C, Grippo J F, Sherman M I, George M D, Jetten A M, Identification and characterization of nuclear retinoic acid-binding activity inhuman myeloblastic leukemia HL-60 cells, Proc Natl Acad Sci USA 86: 5854-5858, 1989) The dissociation constants for the inhibitors is determined by the well described charcoal absorption method (Yang N, Schule R, Mangelsdorf D J, Evans R M, Characterization of DNA binding and retinoic acid binding properties of retinoic acid receptor, Proc Natl Acad Sci USA 88: 3559-3663, 1991). Briefly, serial dilutions of the novel compounds (10^−11 to 10^−5 M) in dimethyl sulfoxide, 100 μL each is used. 12 mg of crude cytosolic extracts is prepared from pET15b (Novagen, Madison, Wis.)/hRAR-α, -β, and -γ prepared protein is used for each data point. All reactions are conducted in binding buffer (60 mM Na imidazole, 500 mM NaCl, 20 mM Tris, pH 7.9) for 14-16 hours at 4° C. in a final volume of 1 mL. Unbound [^3H]ATRA is removed by addition of 0.5 mL of equivalent-sized dextran-treated charcoal (final concentration 3% [wt/vol]) for 15 minutes at 4° C. […]
(§2) Since the RAMBAs are retinoic acid analogs, it is possible that some of the compounds may bind to retinoid receptors and function as either transcriptional agonists/antagonists or may display anti AP-1 activity (Chambon P, A decade of molecular biology of retinoic acid, FASEB J 10: 5899-5904, 19962. The ability of three RAMBAs, VN/14-1, VN/50A-1 and VN/66-1 to bind to the individual RAR receptors was thus evaluated in vitro. Recombinant full-length RAR proteins were expressed as S-Tag fusion proteins in BL21 E. coli cells used for competitive binding assays. Each competition-binding assay contained 1 nM [^3H] […]

[1] = Pharmacokinetic studies in mice (plasma levels by HPLC); assay type: in vivo
Procedure: FIG. 18: Plasma Levels in Balb/c Mice Following Dose of 10 mg/kg body weight Given s/c.
Pharmacokinetic studies of VN/65-4 and VN/66-1 were measured in mice and were compared to VN/14-1 and VN/50A-1. Mice were dosed s.c. at 10 mg/kg using a vehicle, 45% β-cyclodextrin in water, and plasma levels were measured by HPLC. […] The results are summarized in Table 3 below and the profiles in FIG. 18.

CYP19 (aromatase) = biological target: T2, CYP19 (aromatase) (Homo sapiens, UniProt P11511); test: Selectivity: effect on CYP19 (aromatase); assay type: biochemical; conditions: concentration as high as 5 μM
T2 sequence (P11511 1-503): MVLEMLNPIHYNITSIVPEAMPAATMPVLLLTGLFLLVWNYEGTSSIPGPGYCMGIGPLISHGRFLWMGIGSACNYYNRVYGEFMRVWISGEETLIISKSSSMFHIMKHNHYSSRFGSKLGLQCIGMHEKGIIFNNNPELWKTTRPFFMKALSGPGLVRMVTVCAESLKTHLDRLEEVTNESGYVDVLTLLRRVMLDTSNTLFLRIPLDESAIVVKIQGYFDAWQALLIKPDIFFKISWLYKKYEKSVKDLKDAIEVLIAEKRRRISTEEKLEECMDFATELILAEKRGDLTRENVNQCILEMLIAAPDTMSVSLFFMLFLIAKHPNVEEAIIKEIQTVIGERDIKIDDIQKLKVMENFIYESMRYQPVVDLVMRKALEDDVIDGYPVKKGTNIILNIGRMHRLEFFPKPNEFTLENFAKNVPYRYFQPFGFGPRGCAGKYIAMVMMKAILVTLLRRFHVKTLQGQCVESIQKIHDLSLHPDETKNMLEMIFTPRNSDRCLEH
Procedure: The selectivity of the compounds of the present invention towards ATRA-4-hydroxylase was tested by measuring the effect on the key enzymes in the biosynthesis of estradiol and dehydroepiandrosterone, CYP19 (aromatase) and CYP17 (17-lyase), respectively.

RARα = biological target: T3, RARα (Homo sapiens, UniProt P10276); test: Competitive [3H]ATRA binding to recombinant RARα; conditions: for binding to RARα: concentrations up to 500 nM
T3 construct: Recombinant full-length RAR proteins were expressed as S-Tag fusion proteins in BL21 E. coli cells; S-Tag; made in house; host or cells: E. coli BL21
T3 sequence (P10276 1-462): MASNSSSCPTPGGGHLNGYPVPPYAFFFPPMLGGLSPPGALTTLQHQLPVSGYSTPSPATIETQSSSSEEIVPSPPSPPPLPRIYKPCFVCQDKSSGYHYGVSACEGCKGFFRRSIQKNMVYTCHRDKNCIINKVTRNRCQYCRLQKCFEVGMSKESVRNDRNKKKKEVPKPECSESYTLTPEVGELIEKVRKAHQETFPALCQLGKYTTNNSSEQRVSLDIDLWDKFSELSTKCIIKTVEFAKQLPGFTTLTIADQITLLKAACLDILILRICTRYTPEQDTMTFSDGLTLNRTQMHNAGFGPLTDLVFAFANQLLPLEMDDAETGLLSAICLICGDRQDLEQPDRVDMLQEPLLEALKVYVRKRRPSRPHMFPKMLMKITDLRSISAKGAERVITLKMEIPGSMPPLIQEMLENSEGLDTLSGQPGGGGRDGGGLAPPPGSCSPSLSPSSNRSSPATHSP
Excerpt: as §1, §2

[2] = 1 nM [3H]ATRA, competitor 1 nM to 500 nM
[3] = mice, 10 mg/kg s.c., average of two animals

Row | Cmax ([1]; Balb/c, mouse, plasma, sc, mice, 10 mg/kg s.c., average of two animals, read-out: Cmax) | Compound | binding to RARγ (RARγ) | time to complete elimination from plasma ([1]; after administration to mice, FIG. 18) | inhibition of CYP19 (aromatase) (CYP19 (aromatase)) | binding to RARα (RARα) | IC50 (RARγ; [2]) | AUC [1, 3] | Cmax [1, 3] | Tmax [1, 3] | t1/2 [1, 3] | IC50 (RARα; [2])
1 | – | CC(C=CC1=C(C)C(n2ccnc2)CCC1(C)C)=CC=CC(C)=CC(=O)n1ccnc1 (stereo not drawn) [VN/50A-1] | did not bind | ≤ 3 h | barely inhibited | did not bind | – | – | – | – | – | –
2 | 16000 ng/mL | CC(C=CC1=C(C)C(n2ccnc2)CCC1(C)C)=CC=CC(C)=CC(=O)Nc1ccc(O)cc1 (racemic) [VN/66-1, (±)-4-(1H-imidazol-1-yl), N-(4′-hydroxyphenyl)retinamide] | did not bind | – | barely inhibited | did not bind | – | – | – | – | – | –
3 | – | CC1=C(/C=C/C(C)=C/C=C/C(C)=C/C(=O)O)C(C)(C)CCC1n1ccnc1 (racemic) [VN/14-1, (±)-4-(1H-imidazole-1-yl)retinoic acid] | – | – | barely inhibited | – | ~16 nM | 567.80 μ/ml min | 5020 ng/mL | 30 min | 68.4 min | ~16 nM
